We go through one compound from patent US4472376A, “Pharmaceutical insertion compositions and a process for producing the same” (Toko Yakuhin Kogyo Kabushiki Kaisha, priority 1976, dated 1984).

The nature of data set [1]: Concentration of 5-fluorouracil in the serum after insertion into the rectum of a rabbit. The data set is classed as in vivo. Conditions: insertion composition of Example 16, rabbit; 3 hours after the insertion. The protocol: When the pharmaceutical insertion composition of the present invention is inserted into the rectum, its concentration in the serum is as follows:
A pharmaceutical insertion composition obtained in Example 16 is inserted into the rectum of a rabbit having the body weight of 3.2 kg at the rate of 20 mg of 5-fluoroaracil per 1 kg of the body weight, and the concentration of 5-fluorouracil in the serum after the insertion is measured to show the following results: […]

A short description of data set [2]: 5-fluorouracil blood concentration / absorption by other dosage forms, compared with effective concentration in blood. The data set is classed as in vivo. The text has this:
Thus, it has been clearly known that the dosage in the form of the insertion composition of the present invention is quite excellent.

For data set [3] the following is noted: known value; cited from earlier work.

Consider `O=c1[nH]cc(F)c(=O)[nH]1` [5-fluorouracil], for which, in data set [1], the “maintenance of effective concentration in blood after rectal insertion of the gel composition” value is listed as “maintains sufficient effective concentration in blood”. Also, in data set [2] (conventional suppository or liquid), the “absorption from conventional suppository or liquid form” value was “barely absorbed”. Further, in data set [2] (injected into vein, 30 minutes later), the “concentration in blood after injection into vein” value is listed as “less than the effective blood concentration”. For the same compound, the “effective concentration in blood” value in data set [3] is reported as “about 0.08 μg/ml”.
